Columns and labels:
Format in all cases: in vivo
Setaria faberi (SETFA) [1] = assay: Example B post-emergence herbicidal activity; conditions: 312 h, rate 250 g/ha, evaluated after 13 days, read-out: Post-emergence activity SETFA (100=total damage to plant; 0=no damage to plant)
Method in brief: (§1)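 Pre-emergence spraying at one day, post-emergence at eight days after sowing. Spray solution in acetone/water (50:50) plus 0.5% Tween 20; plants held at 24/16 °C day/night, 14 h light, 65% humidity. Evaluation at 13 days on a 0–100 damage scale.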

[2] = tested on: Alopecurus myosuroides (ALOMY); assay: Example B post-emergence herbicidal activity; conditions: 312 h, rate 250 g/ha, evaluated after 13 days, read-out: Post-emergence activity ALOMY (100=total damage to plant; 0=no damage to plant)
Method in brief: as §1

[3] = tested on: Amaranthus retoflexus (AMARE); assay: Example B post-emergence herbicidal activity; conditions: Amaranthus retroflexus, 312 h, rate 250 g/ha, evaluated after 13 days, read-out: Post-emergence activity AMARE (100=total damage to plant; 0=no damage to plant)
Method in brief: as §1

Avena fatua (AVEFA) [4] = assay: Example B post-emergence herbicidal activity; conditions: 312 h, rate 250 g/ha, evaluated after 13 days, read-out: Post-emergence activity AVEFA (100=total damage to plant; 0=no damage to plant)
Method in brief: as §1

[5] = tested on: Echinochloa crus-galli (ECHCG); assay: Example B post-emergence herbicidal activity; conditions: 312 h, rate 250 g/ha, evaluated after 13 days, read-out: Post-emergence activity ECHCG (100=total damage to plant; 0=no damage to plant)
Method in brief: as §1

Setaria faberi (SETFA) [6] = assay: Example B pre-emergence herbicidal activity; conditions: 312 h, rate 250 g/ha, evaluated after 13 days, read-out: Pre-Emergence Activity SETFA (100=total damage to plant; 0=no damage to plant)
Method in brief: as §1

[7] = tested on: Alopecurus myosuroides (ALOMY); assay: Example B pre-emergence herbicidal activity; conditions: 312 h, rate 250 g/ha, evaluated after 13 days, read-out: Pre-Emergence Activity ALOMY (100=total damage to plant; 0=no damage to plant)
Method in brief: as §1

[8] = tested on: Amaranthus retoflexus (AMARE); assay: Example B pre-emergence herbicidal activity; conditions: Amaranthus retroflexus, 312 h, rate 250 g/ha, evaluated after 13 days, read-out: Pre-Emergence Activity AMARE (100=total damage to plant; 0=no damage to plant)
Method in brief: as §1

Avena fatua (AVEFA) [9] = assay: Example B pre-emergence herbicidal activity; conditions: 312 h, rate 250 g/ha, evaluated after 13 days, read-out: Pre-Emergence Activity AVEFA (100=total damage to plant; 0=no damage to plant)
Method in brief: as §1

[10] = tested on: Echinochloa crus-galli (ECHCG); assay: Example B pre-emergence herbicidal activity; conditions: 312 h, rate 250 g/ha, evaluated after 13 days, read-out: Pre-Emergence Activity ECHCG (100=total damage to plant; 0=no damage to plant)
Method in brief: as §1

Structure (SMILES) | pest or weed control at 250 g/ha (Setaria faberi (SETFA) [1]) [%] | pest or weed control at 250 g/ha [2] [%] | pest or weed control at 250 g/ha [3] [%] | pest or weed control at 250 g/ha (Avena fatua (AVEFA) [4]) [%] | pest or weed control at 250 g/ha [5] [%] | pest or weed control at 250 g/ha (Setaria faberi (SETFA) [6]) [%] | pest or weed control at 250 g/ha [7] [%] | pest or weed control at 250 g/ha [8] [%] | pest or weed control at 250 g/ha (Avena fatua (AVEFA) [9]) [%] | pest or weed control at 250 g/ha [10] [%]
CCc1sc(-c2ccc(Cl)c(C)c2)nc1C1C(=O)[C@@H]2CC[C@@H](C2)C1=O (stereo partly shown) [Compound T20] | 90 | 90 | 0 | 90 | 100 | 40 | 50 | 0 | 0 | 70
Cc1sc(-c2ccc(F)cc2)nc1C1C(=O)[C@@H]2CC[C@@H](C2)C1=O (stereo partly shown) [Compound T57] | 100 | 70 | 0 | 60 | 100 | 90 | 60 | 0 | 20 | 90
CCc1sc(-c2ccc(Cl)cc2Cl)nc1C1C(=O)[C@@H]2CC[C@@H](C2)C1=O (stereo partly shown) [Compound T46] | 100 | 100 | 0 | 90 | 100 | 90 | 60 | 0 | 30 | 100
O=C1C(c2nc(-c3ccc(Cl)cc3)sc2Cl)C(=O)[C@H]2CC[C@@H]1C2 (stereo partly shown) [Compound T55] | 100 | 100 | 0 | 100 | 100 | 100 | 100 | 0 | 100 | 100
CCc1sc(-c2ccc(C)cc2)nc1C1C(=O)[C@@H]2CC[C@@H](C2)C1=O (stereo partly shown) [Compound T54] | 100 | 100 | 30 | 90 | 100 | 60 | 90 | 0 | 70 | 100
Cc1sc(-c2cccs2)nc1C1C(=O)[C@@H]2CC[C@@H](C2)C1=O (stereo partly shown) [Compound T2] | 70 | 0 | 0 | 0 | 30 | 50 | 0 | 0 | 0 | 0
Cc1sc(-c2ccc(C(F)(F)F)cc2)nc1C1C(=O)[C@@H]2CC[C@@H](C2)C1=O (stereo partly shown) [Compound T59] | 100 | 100 | 0 | 80 | 100 | 100 | 80 | 0 | 70 | 90
Cc1cnc(-c2ccc(Cl)cc2)nc1C1C(=O)[C@@H]2CC[C@@H](C2)C1=O (stereo partly shown) [Compound T88] | 70 | 10 | 0 | 0 | 90 | 80 | 0 | 0 | 0 | 60
Cc1sc(-c2ccc(Cl)cc2F)nc1C1C(=O)[C@@H]2CC[C@@H](C2)C1=O (stereo partly shown) [Compound T13] | 100 | 100 | 0 | 90 | 100 | 100 | 90 | 0 | 40 | 100
CCc1sc(-c2ccc(C(F)(F)F)cc2)nc1C1C(=O)[C@@H]2CC[C@@H](C2)C1=O (stereo partly shown) [Compound T96] | 100 | 100 | 30 | 100 | 100 | 100 | 80 | 0 | 100 | 100
COCOc1ccc(-c2nc(C3C(=O)[C@@H]4CC[C@@H](C4)C3=O)c(C)s2)cc1 (stereo partly shown) [Compound T66] | 70 | 10 | 0 | 0 | 70 | 30 | 10 | 0 | 0 | 30
Cc1ccc(-c2nc(C3C(=O)[C@@H]4CC[C@@H](C4)C3=O)c(C)s2)cc1Cl (stereo partly shown) [Compound T10] | 70 | 20 | 0 | 0 | 70 | 20 | 20 | 0 | 0 | 60
CCc1sc(-c2ccc(Cl)c(Cl)c2)nc1C1C(=O)[C@@H]2CC[C@@H](C2)C1=O (stereo partly shown) [Compound T22] | 90 | 90 | 0 | 90 | 90 | 100 | 70 | 20 | 20 | 80
CCc1sc(-c2ccc(Br)cn2)nc1C1C(=O)[C@@H]2CC[C@@H](C2)C1=O (stereo partly shown) [Compound T39] | 100 | 100 | 0 | 100 | 100 | 90 | 90 | 0 | 0 | 100
Cc1sc(-c2ccc(Cl)s2)nc1C1C(=O)[C@@H]2CC[C@@H](C2)C1=O (stereo partly shown) [Compound T34] | 90 | 70 | 0 | 0 | 80 | 20 | 20 | 0 | 0 | 20
CCc1sc(-c2ccccc2)nc1C1C(=O)[C@@H]2CC[C@@H](C2)C1=O (stereo partly shown) [Compound T93] | 70 | 30 | 0 | 0 | 70 | 20 | 20 | 0 | 0 | 40

— patent US8598365B2, “Herbicides” (Syngenta Limited, priority 2007, dated 2013)
